Reference: patent US20240024255A1 (priority 2022, published 2024)
Marks after values point to notes of the source that are not given here.

Columns and labels:
[1] = biological target: Monoamine oxidase-B (MAO-B); test: MAO-B inhibition assay (rat liver homogenate); format: biochemical
Method: The rat liver tissues were quickly removed to wash in ice-cold potassium phosphate buffer (0.2 M, pH 7.6), and stored at −80° C. 5 g of liver tissue was homogenized (1:20, w/v) in 0.3 M sucrose at 4° C. and centrifuged at 2000×g for 10 min. The supernatant was further centrifuged at 12000×g for 25 min. The resulting pellet suspended in minimal volume in 0.3 M sucrose and overlay on 1.3 M sucrose and centrifuge at 12000×g (40 min) to obtain a crude mitochondrial pellet. The pellet was resuspended in 2 mL 0.2 M phosphate buffer (pH 7.6) used as MAO-B enzyme source. Total protein concentration was measured by the method of Bradford and adjusted with buffer (0.2 M; pH 7.6) to 0.5 mg protein per ml (stock solution) and stored at −80° C. in aliquots until required.
The assay was carried out in 96-well microplates according to the process modified by Holt' et al. (1997). […] Paragyline was used as the standard inhibitor.

[2] = format: in vitro ADME
Method: Briefly, 20 mL of the saline solution containing 1 mL plant extracts were acidified to pH 2.0 by adding porcine pepsin preparation (40 mg/mL in 0.1 M HCl) and allowed for gastric digestion at 37° C. in a shaker incubator. After 1 h, the pH of the solution was adjusted to 5.3 using 0.9 M NaHCO3 solution. To this added 200 μL of bovine and porcine bile extract solution (100 mg/mL in saline), and 100 μL of pancreatin solution (80 mg/mL in saline). The pH was readjusted to 7.5 using 1 M NaOH followed by incubation at 37° C. for 2 h to accomplish the intestinal digestion phase. Aliquots of samples before and after digestion were centrifuged at 5000 g; upper phase used for anti-lipase and antioxidant assays. The samples were further used for HPLC analysis to determine the bioavailability.
HPLC analysis of the samples before and after gastrointestinal digestion was performed following the in-house validated chromatographic conditions using a Shimadzu LC2030 C Prominence-i (Japan) system equipped with a high sensitivity LC2030 ultraviolet (UV) detector and LabSolutions software.

[3] = design: species or system Wistar rats; conditions: rat, in vivo, po, 1000 mg/kg
Method: Twelve healthy male Wistar rats aged 10-12-week-old (250-300 g) were used for the bioavailability study. The animals were procured from Biogen Laboratory Animal Facility, Bangalore, India (Reg No. 971/PO/RcBiBt/S/06/CPCSEA). All the animals were housed in air-conditioned room under temperature (22±3° C.) and humidity (30-70%) controlled environment. The rats were fed standard rodent diet and water ad libitum. The animal experimentation protocol was approved by the Institutional Animal Ethics Committee (IAEC) of Vidya Herbs Pvt Ltd., Bangalore, India (VHPL/PCL/IAEC/02/2021).
After 7-day acclimatization, the animals were fasted overnight prior to the experiment, with free access to water. […] The sample size was determined by power analysis (Festing and Altman, 2002) using the formula,
The extracts were formulated in a mixture of Cremaphor, Tween 80, ethanol, and water. The extracts were administered by oral gavage at a single dose of 1000 mg/kg. The animals were anesthetised in anaesthesia chamber supplied with 2% gaseous isoflurane. Blood samples were collected from tail vein at 0.25, 0.5, 1, 2, 4, 8, 12 and 24 h after oral administration of extracts. The blood samples collected in heparinized tubes were centrifuged at 3000 rpm for 10 min. The plasma samples were stored at −20° C. for further analysis. […]

[4] = system: carrageenan-induced paw edema; test: Carrageenan-induced acute inflammatory model (paw edema); format: in vivo, Wistar rats; conditions: Indomethacin 10 mg/kg.bw
Method: Wistar rats were randomly allotted into six groups (n=6) and kept for 7-day acclimatization. Group 1 was treated as control, group 2 received indomethacin 10 mg/kg.bw. […] All animal studies have been carried out by following the animal ethical guidelines and regulation of Institutional Animal Ethics Committee of Vidya Herbs Pvt. Ltd. Bangalore. India. with the protocol number VHPL/PCL/IAEC/08/19.
The carrageenan-induced paw edema test was performed in accordance with the method 17 with some modifications. Drugs were administered to all the respective groups. One hour later, the animals were injected with 0.01 mL of 1% (w/v) freshly prepared carrageenan solution into the right-hind paw sub plantar injection. Paw thickness and volume were measured after 30 min, 1, 2, 4, and 24 h after carrageenan injection using Vernier callipers and Plethysmometer, respectively. The percentage inhibition of inflammation was calculated.
Data were analyzed using one-way analysis of variance (ANOVA) with Duncan multiple range test for means ±standard error, where *P<0.001 was considered to indicate statistically significant difference between groups. All the experimental data were derived from three independent experiments.

In the case of C#CCN(C)Cc1ccccc1 [paragyline], the “MAO-B IC-50” value [1] is reported as 6.5 µg/mL.

With O=C(/C=C/c1ccc(O)cc1)CC(=O)/C=C/c1ccc(O)cc1 [BDMC, bisdemethoxycurcumin] the “bioavailability with respect to undigested sample” value [2] was “considerably higher”, the “concentration in the samples at different digestive phases” value [2] was “remained unchanged” and the AUC0-Last [3] was “markedly increased”.

With COc1ccc2c(c1)c(CC(=O)O)c(C)n2C(=O)c1ccc(Cl)cc1 [Indomethacin] the Paw thickness ([4]; 0 h) was 2.41 ± 0.12 mm, the Paw volume ([4]; 0 h) was 1.12 ± 0.04 mL and the Paw thickness ([4]; 0.5 h) was 3.18 ± 0.09*** mm. For the same molecule, the Paw volume ([4]; 0.5 h) was 1.32 ± 0.04** mL, the Paw thickness ([4]; 1 h) was 3.73 ± 0.07*** mm and the Paw volume ([4]; 1 h) was 1.57 ± 0.08*** mL. The Paw thickness ([4]; 2 h) was 3.12 ± 0.11*** mm, the Paw volume ([4]; 2 h) was 1.47 ± 0.06*** mL and the Paw thickness ([4]; 4 h) was 2.67 ± 0.09*** mm. For the same molecule, the Paw volume ([4]; 4 h) was 1.37 ± 0.03*** mL, the Paw thickness ([4]; 24 h) was 2.43 ± 0.10*** mm and the Paw volume ([4]; 24 h) was 1.16 ± 0.05*** mL.
